This is an account of results in patent US8080563B2, “Bicyclic heteroaryl inhibitors of PDE4” (Kalypsys, priority 2006, dated 2011).

pIC50: −log10 of the molar value.

In assay [1] the target is T1, PDE4B (Homo sapiens, UniProt Q07343).
T1 construct: hex-histidine (His6) (N); made in house
Description: Coupled PDE/AK bioluminescent assay of PDE inhibition. It is filed as biochemical. The following applies: PDE4B catalytic domain. From the text: Phosphodiesterases regulate the activity of the second messenger cyclic adenosine monophosphate (cAMP) by hydrolyzing cAMP to adenosine monophosphate (AMP). We developed a novel coupled PDE/AK bioluminescent high-throughput assay to measure the activity of phosphodiesterases. In the PDE/AK assay, the AMP produced from the hydrolysis of cAMP by phosphodiesterase is converted to adenosine diphosphate (ADP) by the phosphotransferase activity of adenylate kinase (also known as ADK or myokinase). Adenylate kinase will catalyze the conversion of 1 mole of AMP and 1 mole of ATP into 2 moles of ADP. Thus the conversion of AMP to ADP will result in the subsequent loss of ATP. The decrease in ATP concentration can be monitored as light output using luciferase in a reaction that requires ATP to produce light. The PDE/AK assay uses luciferase, which catalyzes the production of light from ATP present in the reaction mix. The amount of emitted light is inversely proportional to the level of AMP present in the reaction. Test compounds are incubated with the phosphodiesterases and phosphodiesterase inhibitors will decrease the rate of cAMP hydrolysis and decrease the subsequent production of AMP. Thus phosphodiesterase inhibitors will decrease the conversion of ATP to ADP and result in the greatest emission of light.
Compounds may be screened for functional potency in in vitro biochemical assays for their ability to inhibit the activity of phosphodiesterase (PDE) enzymes. A novel coupled PDE/AK assay was utilized to measure the inhibitory activity of compounds on PDE isoforms. The catalytic domain of PDE4B was fused to an amino-terminus hex-histidine affinity tag and purified. PDE4B enzyme was incubated with compounds for 10 minutes. Cyclic AMP substrate, ATP and adenylate kinase were then added to the PDE enzyme mix and incubated for 45 minutes at room temperature. A commercial ATP detection assay, Perkin Elmer's easyLite ATP detection reagent, was then added to measure the relative amount of ATP present in the reaction. After […], the luminescent signal was quantitated with either the Perkin Elmer Viewlux or Molecular Devices Acquest or Analyst. Roflumilast and Rolipram are the positive controls used in the assay.

In assay [2] the test system is Lacrimal Gland Inflammation-Induced Dry Eye in Rabbits. Description: Lacrimal gland inflammation-induced dry eye in rabbits (corneal staining, tear breakup time). In kind it is in vivo. To be noted: topical ocular BID; for Activity at Percent Concentration Tested 1 × 10^−2: 1 × 10^−2 percent concentration; for Activity at Percent Concentration Tested 1 × 10^−4: 1 × 10^−4 percent concentration; for Activity at Percent Concentration Tested 1 × 10^−6: 1 × 10^−6 percent concentration. The text has this: A more detailed description of the assay used herein may be found in Naglehout, T J et al. 2005, “Preservation of Tear Film Integrity and Inhibition of Corneal Injury by Dexamethasone in a Rabbit Model of Lacrimal Gland Inflammation-Induced Dry Eye,” J. Ocular Pharm. Ther., 21:2. 139-148, the disclosure of which is hereby incorporated by reference as if written herein in its entirety.
Rabbits (n=4/group) were randomized into treatment groups and dosed topically BID with maxidex vehicle or test drug beginning one day prior to initiation of dry eye. Each rabbit received bilateral lacrimal gland injections of saline or ConA (300 μg/30 μl) and topical ocular dosing was continued BID throughout the study.
Desiccation was initiated 1-2 hours following lacrimal gland injection by placing conscious rabbits in the environmental chamber (10-15% humidity/72° F.). Following 72 consecutive hours of exposure to this dry environment, the animals were anesthetized and sutures were placed in each upper and lower eyelid and lifted to form a corneal/conjunctival cup. Methylene blue dye (1 mL, 1% in dH2O) was added to the cup for three minutes and the excess removed by washing with 200 mL BSS®. The contralateral eye was then stained using the same procedure. Rabbits were euthanized immediately following the staining procedure and the eyes were excised. The corneas were isolated with a trephine and the 9.5-mm punch of the cornea was placed in 2 mL acetone/saturated sodium sulfate (7:3, vol./vol.). Absorbance of the extracted dye was determined at 660 nm.
TBUT was quantified in a separate group of treated animals. TBUT was determined by instilling 5 μL sodium fluorescein into the cul de sac and manually blinking the lids to distribute the fluorescein within the tear film. Under slit lamp observation, the eye was held open and the time whereby one or more black spots or streaks appeared in the precorneal tear film was recorded. The rabbits were euthanized 3 days following ConA injection.

T1 sequence (Q07343 330-659 limits assumed, species assumed): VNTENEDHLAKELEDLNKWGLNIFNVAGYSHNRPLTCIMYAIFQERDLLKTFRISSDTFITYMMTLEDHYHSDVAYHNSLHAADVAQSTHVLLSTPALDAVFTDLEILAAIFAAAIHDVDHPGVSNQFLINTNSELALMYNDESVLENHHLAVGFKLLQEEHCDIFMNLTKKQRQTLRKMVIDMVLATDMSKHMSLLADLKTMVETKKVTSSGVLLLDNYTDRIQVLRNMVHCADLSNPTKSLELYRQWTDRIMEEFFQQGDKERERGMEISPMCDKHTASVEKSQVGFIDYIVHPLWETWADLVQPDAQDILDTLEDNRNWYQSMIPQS

As to `COc1ccc2c(Nc3c(Cl)cncc3Cl)cc(=O)n(CCO)c2c1OC1CCCC1` [Example 9, 8-(Cyclopentyloxy)-4-(3,5-dichloropyridin-4-ylamino)-1-(2-hydroxyethyl)-7-methoxyquinolin-2(1H)-one], the pIC50 in assay [1] is at least 6.00.

`COc1ccc2c(Nc3c(Cl)cncc3Cl)cc(=O)n(CCN(C)C)c2c1OC1CCCC1` [Example 10, 8-(Cyclopentyloxy)-4-(3,5-dichloropyridin-4-ylamino)-1-(2-(dimethylamino)ethyl)-7-methoxyquinolin-2(1H)-one] gave a pIC50 in assay [1] of at least 6.00.

For `COc1ccc2c(Nc3c(C)cncc3C)cc(=O)[nH]c2c1OC1CCCC1` [Example 5, 8-(Cyclopentyloxy)-4-(3,5-dimethylpyridin-4-ylamino)-7-methoxyquinolin-2(1H)-one], in assay [1], the pIC50 was at least 6.00. In addition, in assay [2], the “Activity at Percent Concentration Tested 1 × 10^−2” value is listed as “Inactive”, the “Activity at Percent Concentration Tested 1 × 10^−4” value is “Inactive” and the “Activity at Percent Concentration Tested 1 × 10^−6” value is recorded as “Inactive”.

`COc1ccc2c(Nc3c(Cl)cncc3Cl)c(Br)c(=O)n(Br)c2c1OC1CCCC1` [Example 6, 1,3-Dibromo-8-(cyclopentyloxy)-4-(3,5-dichloropyridin-4-ylamino)-7-methoxyquinolin-2(1H)-one] had a negative-log IC50 (pIC50) in assay [1] of at least 6.00.

In assay [1], `COc1ccc2c(Nc3c(Cl)cncc3Cl)c(Br)c(=O)[nH]c2c1OC1CCCC1` [Example 7, 3-Bromo-8-(cyclopentyloxy)-4-(3,5-dichloropyridin-4-ylamino)-7-methoxyquinolin-2(1H)-one] had a pIC50 of at least 6.00.

In turn, `COc1ccc2c(Nc3c(C)cncc3C)cc(=O)[nH]c2c1OCC1CC1` [Example 8, 8-(Cyclopropylmethoxy)-4-(3,5-dimethylpyridin-4-ylamino)-7-methoxyquinolin-2(1H)-one] gave a pIC50 in assay [1] of at least 6.00. In assay [2], the “Activity at Percent Concentration Tested 1 × 10^−2” value is listed as “Inactive”, the “Activity at Percent Concentration Tested 1 × 10^−4” value is “Inactive” and the “Activity at Percent Concentration Tested 1 × 10^−6” value is listed as “Inactive”.

With `COc1ccc2c(Nc3c(C)cncc3C)cc(=O)[nH]c2c1OCC(C)C` [Example 12, 4-(3,5-Dimethylpyridin-4-ylamino)-8-isobutoxy-7-methoxyquinolin-2(1H)-one], the pIC50 in assay [1] is at least 6.00.

In the case of `COc1ccc2c(Nc3c(Cl)cncc3Cl)cc(=O)[nH]c2c1OCC1CC1` [Example 3, 8-(Cyclopropylmethoxy)-4-(3,5-dichloropyridin-4-ylamino)-7-methoxyquinolin-2(1H)-one], the negative-log IC50 (pIC50) in assay [1] was at least 6.00.

`COc1ccc2c(Oc3c(Cl)cncc3Cl)cc(=O)[nH]c2c1OC1CCCC1` [Example 2, 8-(Cyclopentyloxy)-4-(3,5-dichloropyridin-4-yloxy)-7-methoxyquinolin-2(1H)-one] showed a pIC50 in assay [1] of at least 6.00.

`COc1ccc2c(Nc3c(Cl)cncc3Cl)cc(=O)[nH]c2c1OCCCCCC(=O)O` [Example 11, 6-(4-(3,5-Dichloropyridin-4-ylamino)-7-methoxy-2-oxo-1,2-dihydroquinolin-8-yloxy)hexanoic acid] had a pIC50 in assay [1] of at least 6.00.

`COc1ccc2c(Nc3c(Cl)cncc3Cl)cc(=O)[nH]c2c1OC1CCCC1` [Example 1, 8-(Cyclopentyloxy)-4-(3,5-dichloropyridin-4-ylamino)-7-methoxyquinolin-2(1H)-one] had a pIC50 in assay [1] of at least 6.00. In addition, in assay [2] (1 percent concentration), the “Activity at Percent Concentration Tested 1” value is reported as “Inactive”. The “Activity at Percent Concentration Tested 1 × 10^−1” value in assay [2] (1 × 10^−1 percent concentration) is given as “Inactive”. Also, in assay [2], the “Activity at Percent Concentration Tested 1 × 10^−2” value was “Inactive”.

Compound `COc1ccc2c(Nc3c(Cl)cncc3Cl)cc(=O)[nH]c2c1OCCCCN(C)C` [Example 13, 4-(3,5-Dichloropyridin-4-ylamino)-8-(4-(dimethylamino)butoxy) -7-methoxyquinolin-2(1H)-one] showed a pIC50 in assay [1] of at least 6.00.

With `COc1ccc2c(Nc3c(Cl)cncc3Cl)cc(=O)[nH]c2c1OCCCCCN(C)C` [Example 14, 4-(3,5-Dichloropyridin-4-ylamino)-8-(5-(dimethylamino)pentyloxy)-7-methoxyquinolin-2(1H)-one], in assay [1], the negative-log IC50 (pIC50) was at least 6.00.

Turning to `COc1ccc2c(Nc3c(Cl)cncc3Cl)cc(=O)n(C)c2c1OC1CCCC1` [Example 4, 8-(Cyclopentyloxy)-4-(3,5-dichloropyridin-4-ylamino)-7-methoxy-1-methylquinolin-2(1H)-one], the pIC50 in assay [1] is at least 6.00.

For orientation: pIC50 means the negative decadic logarithm of the IC50, by convention in mol/L.
